How the values were obtained:
[1] = target: T1, full-length human His-tagged BTK (Homo sapiens, UniProt Q06187); assay: BTK HTRF assay (Cisbio KinEASE-TK); type: biochemical; details: 6 nM BTK, 30 uM ATP, 15 min preincubation
T1 construct: 6 nM of full-length human His-tagged BTK (Life Technologies cat # PV3587); His; purchased Life Technologies PV3587
Description: Description of Biological Properties BTK Assay
An HTRF assay (Cisbio KinEASE-TK cat #62TK0PEC) was performed to quantitate the ability of test compounds to inhibit BTK mediated phosphorylation of substrate. Assays were assembled in 384 well plates where 6 nM of full-length human His-tagged BTK (Life Technologies cat # PV3587) and test compound at varying concentrations were preincubated for 15 minutes at 28° C. Then, 1 uM of TK substrate-biotin and 30 uM ATP were added and incubated for an additional 30 minutes at 28° C. Phospohrylation was detected by adding 62.5 nM Streptavidin-XL665 and TK-Antibody Cryptate diluted 1:100 in HTRF detection buffer (Cisbio cat #62SDBRDF) and incubated for 60 minutes at RT. The plate was read on an Envision plate reader and the fluorescence is measured at 620 nm (cryptate) and 665 nm (XL665). A ratio is calculated (665/620) and converted to POC relative to control and blank wells.
50 mM HEPES (Invitrogen #15630), 0.01% Brij-35 (sigma #B4184), 10 mM MgCl2 (Sigma M1028), 1 mM EGTA (Ambion AM9262) and 100 uM sodium orthovanedate (Sigma S6508), 1 mM DTT (Sigma D5545) and 10 nM supplement enzyme buffer (Cisbio cat#61SEBALB).

[2] = system: BTK activity measured by IL-6 production in primary CD19+ cells; assay: Inhibition of IL-6 production in B cells co-stimulated with ODN 2006 and anti-hIgD; type: cell-based; details: B-cell, anti-human IgD + ODN 2006, 18-24 hours
Description: (§1) The compounds described herein show a range of selectivities against EGFR as measured in cellular assays (BTK activity measured by IL-6 production in primary CD19^+ cells; EGFR activity measured by EGFR phosphorylation in A431 cells).
Inhibition of IL-6 Production in B Cells Co-Stimulated with ODN 2006 and Anti-hIgD
Primary CD19+ B cells (AllCells # PB010F) are thawed and plated in RPMI containing 10% HI FBS in a 384-well tissue cultured plate at 20,000 cells/well. The cells are treated with test compound (0.5% DMSO final concentration) and incubated for 1 hour at 37° C., 5% CO2. Cells are then stimulated with 5 ug/mL Goat F(ab′)2 anti-human IgD (SouthernBiotech #2032) and 2 uM ODN 2006 (InvivoGen # tlrl-2006) and incubated for 18-24 hours at 37° C., 5% CO2. IL-6 in the supernatant is measured using Meso Scale Discovery kit # K211AKB-6.

[3] = system: EGFR phosphorylation in A431 cells; assay: Inhibition of EGFR autophosphorylation in A431 human epithelial cells stimulated with EGF; type: cell-based; details: A-431, 16 hours compound, EGF 60 ng/mL 10 minutes, read-out: A431 p-EGFR IC50
From the text: as §1
Inhibition of EGFR Autophosphorylation in A431 Human Epithelial Cells Stimulated with Epithelial Growth Factor
A431 cells (ATCC # CRL-1555 FZ) are thawed and plated in DMEM containing 10% FBS in a 384-well tissue culture treated plate at 15,000 cells/well. After incubating for 24 hours at 37° C., 5% CO2, the cells are treated with test compound (1% DMSO final concentration) and incubated for 16 hours at 37° C., 5% CO2. EGF (Millipore, 01-107) is added at a final concentration of 60 ng/mL and incubated for 10 minutes. The medium is removed, the cells are lysed, and phospho EGFR is measured (Meso Scale Diagnostics, N31CB-1).

T1 sequence (Q06187 whole entry): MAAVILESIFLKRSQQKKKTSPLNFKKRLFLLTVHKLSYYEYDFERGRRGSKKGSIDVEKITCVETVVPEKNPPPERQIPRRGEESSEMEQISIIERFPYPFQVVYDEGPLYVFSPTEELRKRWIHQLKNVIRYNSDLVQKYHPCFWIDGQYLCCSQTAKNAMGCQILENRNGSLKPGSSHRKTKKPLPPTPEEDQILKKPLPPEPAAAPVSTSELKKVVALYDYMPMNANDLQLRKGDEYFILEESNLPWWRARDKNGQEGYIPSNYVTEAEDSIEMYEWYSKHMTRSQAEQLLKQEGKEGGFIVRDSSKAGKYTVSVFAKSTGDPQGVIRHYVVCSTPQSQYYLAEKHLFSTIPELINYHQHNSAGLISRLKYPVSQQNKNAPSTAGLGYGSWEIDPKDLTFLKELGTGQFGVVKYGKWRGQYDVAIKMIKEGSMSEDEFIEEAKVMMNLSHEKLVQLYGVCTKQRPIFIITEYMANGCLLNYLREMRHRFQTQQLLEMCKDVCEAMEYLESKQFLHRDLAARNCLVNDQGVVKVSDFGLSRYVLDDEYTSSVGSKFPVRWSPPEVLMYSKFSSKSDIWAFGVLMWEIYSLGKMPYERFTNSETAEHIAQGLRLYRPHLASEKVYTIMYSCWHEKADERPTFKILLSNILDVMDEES

SMILES	IC50 [1]	IC50 [2]	IC50 [3]
C=CC(=O)N1CC2(CC(n3nc(-c4ccc(C(C)OCC)cc4)c(C(N)=O)c3N)C2)C1 (stereo not shown) [Example 1]	100 nM	–	–
C=CC(=O)N1CC2(CC(n3nc(-c4ccc(C(C)OC)cc4)c(C(N)=O)c3N)C2)C1 (stereo not shown) [Example 2]	200 nM	–	–
C=CC(=O)N1CC2(CC(n3nc(-c4ccc(COC)cc4)c(C(N)=O)c3N)C2)C1 [Example 3]	94 nM	–	–
C=CC(=O)N1CC[C@]2(C1)C[C@H](n1nc(-c3ccc(COC)cc3)c(C(N)=O)c1N)C2 [Example 4]	26 nM	–	–
CC#CC(=O)N1CC[C@]2(C1)C[C@H](n1nc(-c3ccc(COC)cc3)c(C(N)=O)c1N)C2 [Example 5]	2 nM	2.4 nM	6100 nM
C=CC(=O)N1CCC[C@]2(C1)C[C@@H](n1nc(-c3ccc(COC)cc3)c(C(N)=O)c1N)C2 [Example 6]	460 nM	–	–
C=CC(=O)N1CCC[C@]2(C1)C[C@H](n1nc(-c3ccc(COC)cc3)c(C(N)=O)c1N)C2 [Example 7]	450 nM	–	–
CC#CC(=O)N1CCC[C@]2(C1)C[C@@H](n1nc(-c3ccc(COC)cc3)c(C(N)=O)c1N)C2 [Example 8]	160 nM	–	–
CC#CC(=O)N1CCC[C@]2(C1)C[C@H](n1nc(-c3ccc(COC)cc3)c(C(N)=O)c1N)C2 [Example 9]	8.2 nM	6.3 nM	> 10000 nM
CC#CC(=O)N1CC[C@]2(C1)C[C@H](n1nc(-c3ccc(C(C)OC)cc3)c(C(N)=O)c1N)C2 (stereo partly shown) [Example 10]	9.3 nM	–	–
CC#CC(=O)N1CC[C@]2(C1)C[C@H](n1nc(-c3ccc(COCC)cc3)c(C(N)=O)c1N)C2 [Example 11]	2.2 nM	–	–
CCC#CC(=O)N1CC[C@]2(C1)C[C@H](n1nc(-c3ccc(COC)cc3)c(C(N)=O)c1N)C2 [Example 12]	0.9 nM	–	–
COCc1ccc(-c2nn([C@H]3C[C@@]4(CCN(C(=O)C#CC5CC5)C4)C3)c(N)c2C(N)=O)cc1 [Example 13]	0.7 nM	–	–
COCc1ccc(-c2nn([C@H]3C[C@@]4(CCN(C(=O)C#CC5CCC5)C4)C3)c(N)c2C(N)=O)cc1 [Example 14]	0.6 nM	–	–
CC#CC(=O)N1CC[C@]2(C1)C[C@H](n1nc(-c3ccc(C(C)OCC)cc3)c(C(N)=O)c1N)C2 (stereo partly shown) [Example 15]	3.6 nM	–	–
CCC#CC(=O)N1CC[C@]2(C1)C[C@H](n1nc(-c3ccc(C(C)OCC)cc3)c(C(N)=O)c1N)C2 (stereo partly shown) [Example 16]	1.8 nM	–	–
CCOC(C)c1ccc(-c2nn([C@H]3C[C@@]4(CCN(C(=O)C#CC5CC5)C4)C3)c(N)c2C(N)=O)cc1 (stereo partly shown) [Example 17]	1.2 nM	–	–
C=CC(=O)N1CC[C@]2(C1)C[C@H](n1nc(-c3ccc(C(O)C(C)C)cc3)c(C(N)=O)c1N)C2 (stereo partly shown) [Example 18]	150 nM	–	–
CC#CC(=O)N1CC[C@]2(C1)C[C@H](n1nc(-c3ccc(C(O)C(C)C)cc3)c(C(N)=O)c1N)C2 (stereo partly shown) [Example 19]	4.5 nM	5.1 nM	3000 nM
C=CC(=O)N1CC[C@]2(C1)C[C@H](n1nc(-c3ccc(CO)cc3)c(C(N)=O)c1N)C2 [Example 20]	66 nM	–	–
CC#CC(=O)N1CC[C@]2(C1)C[C@H](n1nc(-c3ccc(CO)cc3)c(C(N)=O)c1N)C2 [Example 21]	2.5 nM	–	–
CC#CC(=O)N1CCC[C@]2(C1)C[C@H](n1nc(-c3ccc(C(O)C4CC4)cc3)c(C(N)=O)c1N)C2 (stereo partly shown) [Example 22]	59 nM	–	–
C=CC(=O)N1CCC[C@]2(C1)C[C@@H](n1nc(-c3ccc(C(O)C4CC4)cc3)c(C(N)=O)c1N)C2 (stereo partly shown) [Example 23]	68 nM	–	–
C=CC(=O)N1CC2(CC(n3nc(-c4ccc(C5(CO)CC5)cc4)c(C(N)=O)c3N)C2)C1 [Example 24]	240 nM	–	–
CC#CC(=O)N1CC[C@]2(C1)C[C@H](n1nc(-c3ccc(CCO)cc3)c(C(N)=O)c1N)C2 [Example 25]	1.4 nM	7 nM	> 10000 nM
CC#CC(=O)N1CC[C@]2(C1)C[C@H](n1nc(-c3ccc(C4(CO)CC4)cc3)c(C(N)=O)c1N)C2 [Example 26]	2.4 nM	–	–
CC#CC(=O)N1CC[C@]2(C1)C[C@H](n1nc(-c3ccc(S(C)(=O)=O)cc3)c(C(N)=O)c1N)C2 [Example 27]	12 nM	93 nM	> 10000 nM

Reference: patent US9828364B2, “Pyrazole compounds as BTK inhibitors” (Boehringer Ingelheim International GmbH, priority 2014, dated 2017)
